This note sets out measurements from ChEMBL document CHEMBL4229505, “4-Aminophenyl acetamides and propanamides as potent transient receptor potential vanilloid 1 (TRPV1) ligands” (Bioorg Med Chem, 2018).

Active and inactive are the calls of the source. No cut-off for these calls is given here.

In data set [1] the target is T1, Transient receptor potential cation channel subfamily V member 1 (Homo sapiens, UniProt Q8NER1). In words: Antagonist activity at human TRPV1 expressed in CHOK1 cells assessed as reduction in capsaicin-induced intracellular calcium level preincubated for 6 mins followed by capsaicin addition by Fluo-4 dye based FLIPR assay. The format is cell-based.
Data set [2] deals with T1, Transient receptor potential cation channel subfamily V member 1. In words: Agonist activity at human TRPV1 expressed in CHO cells assessed as intracellular calcium accumulation by Fluo-4 dye based FLIPR assay. Type of data set: cell-based.
The target is the same in data set [3]. The experiment in a line: Partial agonist activity at human TRPV1 expressed in CHO cells assessed as intracellular calcium accumulation by Fluo-4 dye based FLIPR assay. The format is cell-based.
For data set [4] the target is unchanged. In words: Antagonist activity at human TRPV1 expressed in CHOK1 cells assessed as reduction in NADA-induced intracellular calcium level preincubated with cells followed by NADA addition measured after 5 mins by Fluo-4 dye based FLIPR assay. Type of data set: cell-based.
For data set [5] the target is unchanged. The experiment in a line: Antagonist activity at human TRPV1 expressed in CHOK1 cells assessed as reduction in heat-induced intracellular calcium level preincubated with cells for 5 mins followed by incubation under 45 degC by Fluo-4 dye based FLIPR assay. The format is cell-based.
Data set [6] shares this target. In words: Antagonist activity at human TRPV1 expressed in CHOK1 cells assessed as reduction in low pH-induced receptor activation by measuring decrease in intracellular calcium level preincubated with cells for 5 mins followed by incubation under pH 6 to 6.3 condition by Fluo-4 dye based FLIPR assay. The format is cell-based.
The subject of data set [7] is Mus musculus. In words: Induction of hyperthermic effect in NMRI mouse assessed as increase in body temperature at 3 mg/kg, po. The conditions noted are these: in vivo. The format is organism-based.
Data set [8] relates to Mus musculus. In words: Anti-hypothermic activity in NMRI mouse assessed as inhibition of capsaicin-induced […] in body temperature at 10 mg/kg, po pretreated for 15 mins followed by capsaicin treatment measured up to 120 mins relative to control. The format is functional.
In data set [9] the test system is Mus musculus. In words: Anti-hypothermic activity in NMRI mouse assessed as inhibition of capsaicin-induced […] in body temperature at 3 mg/kg, po pretreated for 15 mins followed by capsaicin treatment measured up to 120 mins relative to control. Type of data set: functional.

T1 sequence (Q8NER1 whole entry): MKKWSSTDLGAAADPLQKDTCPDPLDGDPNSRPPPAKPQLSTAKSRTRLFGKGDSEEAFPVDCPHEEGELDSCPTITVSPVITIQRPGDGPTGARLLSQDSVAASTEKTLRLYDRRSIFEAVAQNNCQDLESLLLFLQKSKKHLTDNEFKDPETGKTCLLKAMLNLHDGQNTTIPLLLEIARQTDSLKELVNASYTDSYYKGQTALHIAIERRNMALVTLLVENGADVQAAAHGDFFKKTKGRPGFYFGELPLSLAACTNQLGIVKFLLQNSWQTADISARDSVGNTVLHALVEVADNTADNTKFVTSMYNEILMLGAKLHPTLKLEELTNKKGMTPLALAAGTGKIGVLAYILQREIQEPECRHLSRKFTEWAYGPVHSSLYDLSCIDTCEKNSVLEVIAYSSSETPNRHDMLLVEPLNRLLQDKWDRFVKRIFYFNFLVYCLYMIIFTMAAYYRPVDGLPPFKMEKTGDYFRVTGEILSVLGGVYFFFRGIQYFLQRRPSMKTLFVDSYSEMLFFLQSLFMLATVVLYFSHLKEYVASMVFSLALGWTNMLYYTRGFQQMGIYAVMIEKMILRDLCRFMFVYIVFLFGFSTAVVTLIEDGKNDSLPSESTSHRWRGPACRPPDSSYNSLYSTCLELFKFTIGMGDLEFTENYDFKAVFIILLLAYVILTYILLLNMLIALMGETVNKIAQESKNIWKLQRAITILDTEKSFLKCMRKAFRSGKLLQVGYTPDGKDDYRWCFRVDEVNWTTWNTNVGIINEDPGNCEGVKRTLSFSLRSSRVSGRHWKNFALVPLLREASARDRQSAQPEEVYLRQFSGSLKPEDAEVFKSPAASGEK

As to `CC1CCN(c2nc(C(F)(F)F)ccc2CNC(=O)C(C)c2ccc(NC(=O)C(C)(C)C)c(F)c2)CC1` (centres undefined), the Ki in data set [1] (read-out: Ki) worked out at 51.9 nM. For the molecule `CC1CCN(c2nc(C(F)(F)F)ccc2CNC(=O)C(C)c2ccc(Nc3ccc(F)cc3)cc2)CC1` (centres undefined), the inhibition constant (Ki) result in [1] is on record as “Not Active”.

`CC1CCN(c2nc(C(F)(F)F)ccc2CNC(=O)C(C)c2ccc(Nc3ccc(Cl)cc3)cc2)CC1` (centres undefined): the Ki in data set [1] (read-out: Ki) amounted to 66.5 nM. Still for that read-out and setting: the figure for `CC1CCN(c2nc(C(F)(F)F)ccc2CNC(=O)C(C)c2cc(Cl)c(N)c(Cl)c2)CC1` (centres undefined) is 2.4 nM.

For the molecule `CC1CCN(c2nc(C(F)(F)F)ccc2CNC(=O)C(C)c2ccc(Nc3ccccn3)cc2)CC1` (centres undefined), the outcome in data set [2] was Active. Turning to `COc1cc(C(C)C(=O)NCc2ccc(C(F)(F)F)nc2N2CCC(C)CC2)cc(OC)c1N` (centres undefined), in data set [1] (read-out: Ki), the Ki came out at 21 nM. Regarding `CC1CCN(c2nc(C(F)(F)F)ccc2CNC(=O)C(C)c2ccc(NC(=O)C(C)C)c(F)c2)CC1` (centres undefined), in data set [1] (read-out: Ki), the Ki turned out to be 26.4 nM. For the molecule `COc1ccc(Nc2ccc(C(C)C(=O)NCc3ccc(C(F)(F)F)nc3N3CCC(C)CC3)cc2)cc1` (centres undefined), the outcome in data set [3] was Active.

On to `CC1CCN(c2nc(C(F)(F)F)ccc2CNC(=O)C(C)c2ccc(NC(=O)C3CC3)c(F)c2)CC1` (centres undefined), for which the Ki in [1] (read-out: Ki) turned out to be 20 nM. On to `CC1CCN(c2nc(C(F)(F)F)ccc2CNC(=O)C(C)c2ccc(Nc3ccccc3)cc2)CC1` (centres undefined), for which the result in [2] was Active.

Turning to `Cc1cc(C(C)C(=O)NCc2ccc(C(F)(F)F)nc2N2CCC(C)CC2)ccc1N` (centres undefined), in data set [2], the outcome was Active. With `CC1CCN(c2nc(C(F)(F)F)ccc2CNC(=O)C(C)c2ccc(N)c(F)c2)CC1` (centres undefined), the result in [2] was Active.

In the case of `CC1CCN(c2nc(C(F)(F)F)ccc2CNC(=O)C(C)c2ccc(NC(=O)c3ccccc3)c(F)c2)CC1` (centres undefined), in [1] (read-out: Ki), the Ki was found to be 7.4 nM.

In the case of `CC1CCN(c2nc(C(F)(F)F)ccc2CNC(=O)Cc2cc(Cl)c(N)c(Cl)c2)CC1`, the Ki was 0.1 to 0.7 nM in data set [4] and 0.3 nM in data set [1] (read-out: Ki). Further, the IC50 in [5] stood at 12.8 nM; in data set [6], 158 nM. Also, the deltaT in data set [7] is above 1 °C. In [8], the inhibition in vivo at 10 mg/kg came to 128%. Also, the inhibition in vivo at 3 mg/kg in [9] was 57%. With `COc1cc(C(C)C(=O)NCc2ccc(C(F)(F)F)nc2N2CCC(C)CC2)ccc1N` (centres undefined), the result in data set [2] was Active.

Turning to `COc1cc(C(C)C(=O)NCc2ccc(C(F)(F)F)nc2N2CCC(C)CC2)cc(F)c1N` (centres undefined), in data set [3], the outcome was Active. Take `CC1CCN(c2nc(C(F)(F)F)ccc2CNC(=O)C(C)c2ccc(N)c(N)c2)CC1` (centres undefined): the outcome in [2] was Active. Consider `CC1CCN(c2nc(C(F)(F)F)ccc2CNC(=O)C(C)c2cc(O)c(N)c(F)c2)CC1` (centres undefined), for which the Ki in data set [1] (read-out: Ki) was determined as 5.3 nM.
